Common to all, as to format: cell-based
The test system of assay [1] is Staphylococcus aureus (S. aureus). Put plainly: Effect on growth of harmful bacteria (optical density after culture in TSB). The conditions noted are these: for Effect on reduction in harmful bacteria (in words): Table 7; for Harmful bacteria (S. aureus), average degree of increase or decrease compared to the untreated group: inoculated at a concentration of 1%, rotary culture 37° C. 16 hours.

In assay [2] the test system is Staphylococcus epidermidis (S. epidermidis). Put plainly: Effect on growth of beneficial bacteria (optical density after culture in TSB). The conditions noted are these: for Effect on increase in beneficial bacteria (in words): Table 7; for Beneficial bacteria (S. epidermidis), average degree of increase or decrease compared to the untreated group: inoculated at a concentration of 1%, rotary culture 37° C. 16 hours.

Assay [3] has as its system human skin fibroblasts. Nature of the assay: Collagen biosynthesis rate (procollagen type I C-peptide EIA kit). The settings on record: 10 ng/mL, 48 hours, control group. The method, then: The effect of the complexes of Preparation Examples on the collagen biosynthesis rate in the human skin fibroblasts was identified. Skin fibroblasts were cultured in complete DMEM culture at 37° C. in the presence of 5% carbon dioxide for 72 hours. After seeding in a 24-well plate, culture was performed at 37° C. in the presence of 5% carbon dioxide for 24 hours. After treating the complexes according to Preparation Examples and culturing at 37° C. in the presence of 5% carbon dioxide for 48 hours, only the supernatant was separated, and the collagen synthesis effect was observed by absorbance using a procollagen type I C-peptide (PIP) EIA kit.
Collagen biosynthesis increase rate (%) = {(Absorbance of complex treated group -Absorbance of untreated group) / Absorbance of untreated group} × 100
10 ng/mL of TGF-β, a cytokine, was used as a control group.

The subject of assay [4] is mouse Raw 264.7 cell line. Nature of the assay: Suppression of inflammatory factor NO (Griess reagent, LPS-treated cells). The conditions noted are these: 20 µg/mL, 1 µg/mL LPS, 24 hours, control group. The method, then:
In order to identify the effect of the complexes of Preparation Examples on the production of NO as an inflammatory factor in cells, a mouse Raw 264.7 cell line was used, and a culture medium whose final pH was adjusted to 8.5 through addition of NaOH to Complete RPMI (RPMI:FBS:antibiotic = 10:1:0.1) was used as an initial culture medium.
When the Raw 264.7 cells appeared at the top of the culture medium after culture at 37° C. in the presence of 5% carbon dioxide for 24 hours, the cells were seeded in a 24-well plate in which a DMEM culture was prepared, followed by culture at 37° C. in the presence of 5% carbon dioxide for 24 hours. Thereafter, treatment was performed after diluting the complexes according to Preparation Examples 1 to 7 by the following concentrations while replacing the medium with a serum-free DMEM culture medium, followed by additional treatment of 1 µg/mL of LPS. After culture at 37° C. in the presence of 5% carbon dioxide for 24 hours, the supernatant was mixed with Griess reagent (Sigma-Aldrich) in a ratio of 1:1 to evaluate the ability to inhibit NO production with absorbance, and the average value was shown in Table 9 below.
NO production inhibition ability (%) = {1 - (NO production when compound is added / NO production in untreated group)} × 100
20 µg/mL of L-NMMA1 (N^G-Methyl-L-arginine acetate salt), an NO inhibitor, was used as a control group.
For orientation: The Griess reaction detects nitrite, a stable product of nitric oxide.

The subject of assay [5] is human dermal papilla cells. Nature of the assay: Activity of dermal papilla cells (CCK-8, optical density at 450 nm). The settings on record: 1 µM, control group. The method, then:
In order to identify the effect of the complexes of Preparation Examples on dermal papilla cells, human dermal papilla cells (Promocell, C-12071) in the 4-8 passage were used as a cell line, and follicle dermal papilla cell growth media (Promocell, C-26501) were used as an initial culture medium.
Cells were seeded at a level of 3,000 to 6,000 cells per well in a 96-well plate, and cultured in an incubator at 37° C. in the presence of 5% carbon dioxide for 24 hours. Thereafter, the culture medium was replaced with DMEM medium supplemented with 0.1% fetal bovine serum (FBS) and cultured in an incubator at 37° C. in the presence of 5% carbon dioxide for 24 hours. Thereafter, the culture medium was replaced with DMEM supplemented with 0.1% FBS treated with the complexes according to Preparation Examples 1 to 7 by each concentration, followed by culture in an incubator at 37° C. in the presence of 5% carbon dioxide for 48 hours. After treating 10 µl of CCK-8 solutions per well, culture was performed at 37° C. for 1 hour, and optical density was measured at 450 nm.
The difference between the optical density measurement value and the initial measurement value after 48 hours for each well was standardized by dividing the difference by the initial measurement value for evaluation, and the average value was shown in Table 8 below. 1 µM minoxidil was treated as a control group. […]

Consider Inulin, for which, in assay [1], the “Effect on reduction in harmful bacteria (in words)” value (“Effect on reduction” for short) was “no significant effect” and the “Harmful bacteria (S. aureus), average degree of increase or decrease compared to the untreated group” value is -0.84%. For the same molecule, in assay [2], the “Effect on increase in beneficial bacteria (in words)” value (from here on “Effect on increase”) is “no significant effect” and the “Beneficial bacteria (S. epidermidis), average degree of increase or decrease compared to the untreated group” value is given as 0.29%.

For TGF-β, the “Collagen biosynthesis increase rate, Average” value in assay [3] worked out at 36.6%.

`CC(=O)O.CNC(=N)NCCC[C@H](N)C(=O)O` [L-NMMA1, N^G-Methyl-L-arginine acetate salt]: the “NO production inhibition ability, Average” value in assay [4] worked out at 52.1%.

For Maltodextrin, in assay [1], the “Effect on reduction” value is reported as “no significant effect” and the “Harmful bacteria (S. aureus), average degree of increase or decrease compared to the untreated group” value is 1.43%. Further, in assay [2], the “Effect on increase” value is “no significant effect” and the “Beneficial bacteria (S. epidermidis), average degree of increase or decrease compared to the untreated group” value worked out at 0.14%.

For the molecule `Nc1cc(N2CCCCC2)nc(N)[n+]1[O-]` [Minoxidil, minoxidil], in assay [5], the “Dermal papilla cell activity, Average (optical density difference after 48 hours divided by initial value)” value stood at 44.2.

As for Beta-glucan, in assay [1], the “Effect on reduction” value is reported as “no significant effect” and the “Harmful bacteria (S. aureus), average degree of increase or decrease compared to the untreated group” value is -0.78%. Also, in assay [2], the “Effect on increase” value was “no significant effect” and the “Beneficial bacteria (S. epidermidis), average degree of increase or decrease compared to the untreated group” value is -0.26%.

Values taken from US20230338270A1, “COSMETIC COMPOSITION FOR SKIN IMPROVEMENT COMPRISING, AS ACTIVE INGREDIENTS, POLYSACCHARIDES, YEAST EXTRACT, AND STRAIN FERMENTATION PRODUCT WITH CHARACTERISTICS OF PROBIOTICS” (LG HOUSEHOLD & HEALTH CARE LTD., priority 2020, published 2023).
